Assay results published in patent US20160304556A1, “[…] ACTIVE COMPOUNDS AND THEIR METHODS OF USE” (AGIOS PHARMACEUTICALS, INC, priority 2012, published 2016).

Columns and labels:
HT1080 cells = assay: Cellular assay, inhibition of 2-HG production (LC-MS) in HT1080 cells; type: cell-based; settings: Homo sapiens, HT-1080, 48 hours, LC-MS of media
Protocol: Cells (HT1080 or U87MG) are grown in T125 flasks in DMEM containing 10% FBS, 1× penicillin/streptomycin and 500 ug/mL G418 (present in U87MG cells only). They are harvested by trypsin and seeded into 96 well white bottom plates at a density of 5000 cell/well in 100 μl/well in DMEM with 10% FBS. No cells are placed in columns 1 and 12. Cells are incubated overnight at 37° C. in 5% CO2. The next day test compounds are made up at 2× the final concentration and 100 μl are added to each cell well. The final concentration of DMSO is 0.2% and the DMSO control wells are plated in row G. The plates are then placed in the incubator for 48 hours. At 48 hours, 100 μl of media is removed from each well and analyzed by LC-MS for 2-HG concentrations. The cell plate is placed back in the incubator for another 24 hours. At 72 hours post compound addition, 10 mL/plate of Promega Cell Titer Glo reagent is thawed and mixed. The cell plate is removed from the incubator and allowed to equilibrate to room temperature. Then 100 μl of Promega Cell Titer Glo reagent is added to each well of media. The cell plate is then placed on an orbital shaker for 10 minutes and then allowed to sit at room temperature for 20 minutes. The plate is then read for luminescence with an integration time of 500 ms.
The IC50 for inhibition of 2-HG production (concentration of test compound to reduce 2HG production by 50% compared to control) in these two cell lines for various compounds of formula I is set forth in Table 2 above.

IDH1 R132H = IDH1 R132H (Homo sapiens, UniProt O75874, R132H); assay: In vitro NADPH depletion assay for IDH1m R132H inhibitors; type: biochemical; settings: enzyme, diaphorase/resazurin readout, read-out: IDH R132H IC50
Protocol: A test compound is prepared as 10 mM stock in DMSO and diluted to 50× final concentration in DMSO, for a 50 μl reaction mixture. IDH enzyme activity converting alpha-ketoglutarate to 2-hydroxyglutaric acid is measured using a NADPH depletion assay. In the assay the remaining cofactor is measured at the end of the reaction with the addition of a catalytic excess of diaphorase and resazurin, to generate a fluorescent signal in proportion to the amount of NADPH remaining. IDH1-R132 homodimer enzyme is diluted to […] in 40 μl of Assay Buffer(150 mM NaCl, 20 mM Tris-Cl pH 7.5, 10 mM MgCl2, 0.05% BSA, 2 mM b-mercaptoethanol); 1 μl of test compound dilution in DMSO is added and the mixture is incubated for 60 minutes at room temperature. The reaction is started with the addition of 10 μl of Substrate Mix ([…], 5 mM alpha-ketoglutarate, in Assay Buffer) and the mixture is incubated for 90 minutes at room temperature. The reaction is terminated with the addition of 25 μl of Detection Buffer (36 μg/ml diaphorase, […], in 1× Assay Buffer), and is incubated for 1 minute before reading on a SpectraMax platereader at Ex544/Em590.
Representative compounds of formula I set forth in Table 1 were tested in this assay and the results are set forth below in Table 3.

Sequence of IDH1 R132H (O75874 whole entry R132H): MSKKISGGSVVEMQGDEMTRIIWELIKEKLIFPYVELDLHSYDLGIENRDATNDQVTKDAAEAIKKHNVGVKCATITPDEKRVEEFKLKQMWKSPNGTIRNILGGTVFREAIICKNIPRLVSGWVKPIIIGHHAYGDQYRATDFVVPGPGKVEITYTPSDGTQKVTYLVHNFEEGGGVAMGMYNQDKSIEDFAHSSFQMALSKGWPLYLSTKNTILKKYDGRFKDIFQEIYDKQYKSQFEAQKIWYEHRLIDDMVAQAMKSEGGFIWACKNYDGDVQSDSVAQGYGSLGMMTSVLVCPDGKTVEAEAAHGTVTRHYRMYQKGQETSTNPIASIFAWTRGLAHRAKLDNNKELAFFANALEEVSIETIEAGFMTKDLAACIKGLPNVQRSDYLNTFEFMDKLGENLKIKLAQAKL

| Structure (SMILES) | IC50 (HT1080 cells) [nM] | IC50 (IDH1 R132H) [nM] |
| --- | --- | --- |
| O=C(NC1CC(F)(F)C1)[C@H](c1ccccc1Cl)N(C(=O)C1CCN1c1ncccn1)c1cccc(F)c1 (some centres unmarked) [Compound 103] | 1000 to 2000 |  |
| Cc1nccn1CC(=O)N(c1cccc(-c2nnco2)c1)C(C(=O)NC1CCCCC1)c1ccccc1Cl (centres unmarked) [Compound 25, N-(3-(1,3,4-oxadiazol-2-yl)phenyl)-N-(1-(2-chlorophenyl)-2-(cyclohexylamino)-2-oxoethyl)-2-(2-methyl-1H-imidazol-1-yl)acetamide] | 1000 to 2000 | 100 to 500 |
| COC(=O)N1C[C@H](F)C[C@H]1C(=O)N(c1cccc(F)c1)[C@H](C(=O)NC1CC(F)(F)C1)c1ccccc1Cl [Compound 55, (2S,4R)-methyl 2-(((S)-1-(2-chlorophenyl)-2-((3,3-difluorocyclo-butyl)amino)-2-oxoethyl)(3-fluorophenyl)carbamoyl)-4-fluoropyrrolidine-1-carboxylate] | 500 to 1000 | ≤ 100 |
| O=C(NC1CC(F)(F)C1)[C@H](c1ccccc1Cl)N(C(=O)[C@@H]1Cc2ccccc2N1)c1cc(F)cc(F)c1 (single isomer, unassigned) [Compound 118] | 100 to 500 | 100 to 500 |
| Cc1ccccc1C(C(=O)NC1CC2CC2C1)N(C(=O)CNc1cccnc1F)c1cccc(F)c1 (centres unmarked) [Compound 15] |  | 100 to 500 |
| Cc1ccccc1C(C(=O)NC1CCC(F)(F)CC1)N(C(=O)Cn1ccnc1C(F)(F)F)c1cccc(F)c1 (centres unmarked) [Compound 11] | 500 to 1000 | 100 to 500 |
| COC(=O)N1CCOC[C@H]1C(=O)N(c1cccc(F)c1)[C@H](C(=O)NC1CC(F)(F)C1)c1ccccc1Cl [Compound 53] | 100 to 500 | ≤ 100 |
| Cc1ccccc1C(C(=O)NC1CC(F)(F)C1)N(C(=O)Cn1ccnc1C)c1cccc(F)c1 (centres unmarked) [Compound 18] | 1000 to 2000 | 500 to 1000 |
| CC(C)(C)OC(=O)N1CCC[C@H]1C(=O)N(c1cccc(F)c1)[C@H](C(=O)NC1CC(F)(F)C1)c1ccccc1Cl [Compound 39] |  | 500 to 1000 |
| O=C(NC1CC(F)(F)C1)C(c1ccccc1Cl)N(C(=O)CNc1cccnc1F)c1cccc(F)c1 (centres unmarked) [Compound 47] | 100 to 500 | ≤ 100 |
| CNS(=O)(=O)c1cccc(N(C(=O)[C@@H]2CCCN2C(=O)OC)[C@H](C(=O)NC2CC(F)(F)C2)c2ccccc2Cl)c1 [Compound 58] |  | 100 to 500 |
| COC(=O)N(C)[C@@H](C)C(=O)N(c1cccc(F)c1)[C@H](C(=O)NC1CCCCC1)c1ccccc1C [Compound 5] | 500 to 1000 | ≤ 100 |
| O=C(NC1CCC(F)(F)CC1)C(c1ccccc1Cl)N(C(=O)Cn1cnc(Cl)c1Cl)c1ccc(F)c(F)c1 (centres unmarked) [Compound 38] |  | 100 to 500 |
| COC(=O)N1CCNC[C@H]1C(=O)N(c1cccc(F)c1)[C@H](C(=O)NC1CC(F)(F)C1)c1ccccc1Cl [Compound 62, (S)-Methyl 2-(((S)-1-(2-chlorophenyl)-2-(3,3-difluorocyclobutylamino)-2-oxoethyl) -(3-fluoro-phenyl)carbamoyl)piperazine-1-carboxylate] | 1000 to 2000 | 100 to 500 |
| CC(C)(C)OC(=O)N1CCC[C@H]1C(=O)N(c1cccc(F)c1)[C@H](C(=O)NC1CCC(F)(F)CC1)c1ccccc1Cl [Compound 44] |  | 500 to 1000 |
| O=C(NC1CCC(F)(F)CC1)C(c1ccccc1Cl)N(C(=O)c1cc2ccccc2[nH]1)c1cccc(F)c1 (centres unmarked) [Compound 34] |  | 500 to 1000 |
| O=C(NC1CCCCC1)C(c1ccccc1Cl)N(C(=O)C1CCc2ccccc2N1)c1cccc(F)c1 (centres unmarked) [Compound 31, N-(1-(2-chlorophenyl)-2-(cyclohexylamino)-2-oxoethyl)-N-(3-fluorophenyl)-1,2,3,4-tetrahydroquinoline-2-carboxamide] | 100 to 500 | ≤ 100 |
| CNC(=O)N1CCCC[C@@H]1C(=O)N(c1cccc(F)c1)[C@H](C(=O)NC1CCCCC1)c1ccccc1C [Compound 3] |  | 500 to 1000 |
| COC(=O)N1C[C@H](O)C[C@H]1C(=O)N(c1cccc(F)c1)[C@H](C(=O)NC1CC(F)(F)C1)c1ccccc1Cl [Compound 51] | 500 to 1000 | ≤ 100 |
| Cc1ccccc1C(C(=O)NC1CCCCC1)N(C(=O)CCNC(=O)OC(C)(C)C)c1cccc(F)c1 (centres unmarked) [Compound 8] |  | 500 to 1000 |
| CC(=O)N1CCC[C@H]1C(=O)N(c1cccc(F)c1)[C@H](C(=O)NC1CCCCC1)c1ccccc1C [Compound 9] | 1000 to 2000 | 100 to 500 |

| Structure (SMILES) | IC50 (HT1080 cells) [nM] | IC50 (IDH1 R132H) [nM] |
| --- | --- | --- |
| Cc1ccccc1C(C(=O)NC1CC(F)(F)C1)N(C(=O)CNc1cccnc1F)c1cccc(F)c1 (centres unmarked) [Compound 19] | 100 to 500 |  |
| Cc1ccccc1C(C(=O)NC1CCCCC1)N(C(=O)CNC(=O)OC(C)(C)C)c1cccc(F)c1 (centres unmarked) [Compound 7] |  | 500 to 1000 |
| O=C(NC1CCCCC1)C(c1ccccc1Cl)N(C(=O)Cn1cncn1)c1cccc(F)c1 (centres unmarked) [Compound 24] | 100 to 500 | ≤ 100 |
| O=C(NC1CCCCC1)C(c1ccccc1Cl)N(C(=O)Cn1cnc(Cl)c1Cl)c1cccc(F)c1 (centres unmarked) [Compound 21] | 100 to 500 |  |
| Cc1nccn1CC(=O)N(c1cccc2[nH]ncc12)C(C(=O)NC1CCCCC1)c1ccccc1Cl (centres unmarked) [Compound 26] | 1000 to 2000 | 100 to 500 |
| N#Cc1ncn(CC(=O)N(c2cccc(F)c2)C(C(=O)NC2CCCCC2)c2ccccc2Cl)c1C#N (centres unmarked) [Compound 22] | 500 to 1000 | 100 to 500 |
| CC(=O)N1CCC[C@@H]1C(=O)N(c1cccc(F)c1)[C@H](C(=O)NC1CCCCC1)c1ccccc1C [Compound 10] |  | 100 to 500 |
| COC(=O)NCCC(=O)N(c1cccc(F)c1)C(C(=O)NC1CCCCC1)c1ccccc1C (centres unmarked) [Compound 12] |  | 100 to 500 |
| Cc1ccccc1C(C(=O)NC1CCC(F)(F)CC1)N(C(=O)CNc1cccnc1F)c1cccc(F)c1 (centres unmarked) [Compound 16] | 100 to 500 |  |
| O=C(NC1CC(F)(F)C1)C(c1ccccc1Cl)N(C(=O)c1cccc2nccn12)c1cccc(F)c1 (centres unmarked) [Compound 40] |  | 500 to 1000 |
| N#Cc1ccccc1C(C(=O)NC1CCCCC1)N(C(=O)Cn1cnc(Cl)c1Cl)c1cccc(F)c1 (centres unmarked) [Compound 28] |  | 100 to 500 |
| O=C(NC1CC(F)(F)C1)[C@@H](c1ccccc1Cl)N(C(=O)[C@@H]1Cc2ccccc2N1)c1cc(F)cc(F)c1 (single isomer, unassigned) [Compound 117] |  | 100 to 500 |
| Cc1ccccc1[C@@H](C(=O)NC1CCCCC1)N(C(=O)[C@H]1CCCN1)c1cccc(F)c1 [Compound 14] |  | 500 to 1000 |
| Cc1nccn1CC(=O)N(c1cccc(F)c1)C(C(=O)NC1CC(F)(F)C1)c1ccccc1Cl (centres unmarked) [Compound 59] |  | 100 to 500 |
| CNC(=O)N1CCC[C@@H]1C(=O)N(c1cccc(F)c1)[C@H](C(=O)NC1CCCCC1)c1ccccc1C [Compound 13] |  | 500 to 1000 |
| Cc1ccccc1[C@@H](C(=O)NC1CCCCC1)N(C(=O)[C@@H]1CCCN1S(C)(=O)=O)c1cccc(F)c1 [Compound 1] |  | 500 to 1000 |
| O=C(NC1CC(F)(F)C1)C(c1ccccc1Cl)N(C(=O)CN1CCOC1=O)c1cccc(F)c1 (centres unmarked) [Compound 60, 2-(2-chlorophenyl)-N-(3,3-difluorocyclobutyl)-2-(N-(3-fluoro-phenyl)-2-(2-oxooxazolidin-3-yl)acetamido)acetamide] |  | 500 to 1000 |
| O=C(NC1CCC(F)(F)CC1)C(c1ccccc1Cl)N(C(=O)Cn1cncn1)c1ccc(F)c(F)c1 (centres unmarked) [Compound 37] |  | 100 to 500 |
| O=C(NC1CCCCC1)C(c1ccccc1Cl)N(C(=O)c1cc2ccccc2[nH]1)c1cccc(F)c1 (centres unmarked) [Compound 20] |  | 500 to 1000 |
| Cc1ccccc1[C@@H](C(=O)NC1CCCCC1)N(C(=O)[C@H]1CCCCN1C(=O)N(C)C)c1cccc(F)c1 [Compound 4] |  | 500 to 1000 |
